Source: PubChem BioAssay AID248 (DTP/NCI, 2004)
Where “and” joins values, the source holds several entries; their conditions need not be identical. Equal values may be shown once. Toxic doses and inconclusive results are not listed. Cut-off read from the data, not from the text of the source: active = T/C of 150% or more; inactive = T/C below 125%.

System: L1210 leukemia ip in BDF1 mice, survival T/C
Assay: NCI In Vivo Anticancer Drug Screen. Data for tumor model L1210 Leukemia (intraperitoneal) in B6D2F1 (BDF1) mice
Settings: higher = longer survival
Outline: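 Antitumor effect is assessed in tumor-bearing animals. Survival in the compound arm is compared with a vehicle-dosed control arm and expressed as their quotient.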

[1] = endpoint: mean survival time, dose: 50.0 mg/kg/injection, schedule: Q01DX001 (ip), vehicle: saline
[2] = endpoint: mean survival time, dose: 100.0 mg/kg/injection, schedule: Q01DX001 (ip), vehicle: saline
[3] = endpoint: mean survival time, dose: 200.0 mg/kg/injection, schedule: Q01DX001 (ip), vehicle: saline
[4] = endpoint: mean survival time, dose: 400.0 mg/kg/injection, schedule: Q01DX001 (ip), vehicle: saline
[5] = endpoint: mean survival time, dose: 50.0 mg/kg/injection, schedule: Q01DX001 (ip), vehicle: carboxymethylcellulose (CMC)
[6] = endpoint: mean survival time, dose: 50.0 mg/kg/injection, schedule: Q04DX003 (ip), vehicle: Klucel (hydroxypropylcellulose) (HPC)
[7] = endpoint: mean survival time, dose: 100.0 mg/kg/injection, schedule: Q01DX001 (ip), vehicle: carboxymethylcellulose (CMC)
[8] = endpoint: mean survival time, dose: 100.0 mg/kg/injection, schedule: Q01DX009 (ip), vehicle: Klucel (hydroxypropylcellulose) (HPC)
[9] = endpoint: mean survival time, dose: 100.0 mg/kg/injection, schedule: Q04DX003 (ip), vehicle: Klucel (hydroxypropylcellulose) (HPC)
[10] = endpoint: mean survival time, dose: 200.0 mg/kg/injection, schedule: Q01DX001 (ip), vehicle: carboxymethylcellulose (CMC)
[11] = endpoint: mean survival time, dose: 200.0 mg/kg/injection, schedule: Q04DX003 (ip), vehicle: Klucel (hydroxypropylcellulose) (HPC)
[12] = endpoint: mean survival time, dose: 100.0 mg/kg/injection, schedule: Q01DX009 (ip), vehicle: saline
[13] = endpoint: mean survival time, dose: 100.0 mg/kg/injection, schedule: Q04DX003 (ip), vehicle: saline with Tween-80
[14] = endpoint: mean survival time, dose: 200.0 mg/kg/injection, schedule: Q04DX003 (ip), vehicle: saline with Tween-80
[15] = endpoint: mean survival time, dose: 400.0 mg/kg/injection, schedule: Q04DX003 (ip), vehicle: saline with Tween-80
[16] = endpoint: mean survival time, dose: 200.0 mg/kg/injection, schedule: Q01DX009 (ip), vehicle: Klucel (hydroxypropylcellulose) (HPC)
[17] = endpoint: mean survival time, dose: 400.0 mg/kg/injection, schedule: Q01DX009 (ip), vehicle: Klucel (hydroxypropylcellulose) (HPC)

Measured: T/C

COc1cc([C@@H]2c3cc4c(c(O)c3C[C@H]3COC(=O)[C@@H]32)OCO4)cc(OC)c1OC
inactive: endpoint: mean survival time, dose: 0.06 mg/kg/injection, schedule: Q01DX Z (ip), vehicle: saline 100 % of control | endpoint: mean survival time, dose: 0.12 mg/kg/injection, schedule: Q01DX Z (ip), vehicle: saline 103 % of control | endpoint: mean survival time, dose: 0.25 mg/kg/injection, schedule: Q01DX Z (ip), vehicle: saline 113 % of control | endpoint: mean survival time, dose: 0.5 mg/kg/injection, schedule: Q01DX Z (ip), vehicle: saline 116 % of control | endpoint: mean survival time, dose: 1.0 mg/kg/injection, schedule: Q01DX Z (ip), vehicle: saline 99 % of control | endpoint: mean survival time, dose: 1.5 mg/kg/injection, schedule: Q01DX Z (ip), vehicle: saline 115 % of control | endpoint: mean survival time, dose: 2.25 mg/kg/injection, schedule: Q01DX Z (ip), vehicle: saline 108 % of control | endpoint: mean survival time, dose: 28.0 mg/kg/injection, schedule: Q01DX001 (ip), vehicle: saline 102 % of control | endpoint: mean survival time, dose: 45.0 mg/kg/injection, schedule: Q01DX001 (ip), vehicle: saline 122 % of control | [1] 101 % of control | endpoint: mean survival time, dose: 65.0 mg/kg/injection, schedule: Q01DX001 (ip), vehicle: saline 111 % of control | [2] 112 % of control | [3] 112 % of control | [4] 117 % of control | endpoint: median survival time, dose: 0.25 mg/kg/injection, schedule: Q01DX009 (ip), vehicle: Klucel (hydroxypropylcellulose) (HPC) 100 % of control | endpoint: median survival time, dose: 0.5 mg/kg/injection, schedule: Q01DX009 (ip), vehicle: Klucel (hydroxypropylcellulose) (HPC) 100 % of control | endpoint: median survival time, dose: 1.0 mg/kg/injection, schedule: Q01DX009 (ip), vehicle: Klucel (hydroxypropylcellulose) (HPC) 100 % of control | endpoint: median survival time, dose: 2.0 mg/kg/injection, schedule: Q01DX009 (ip), vehicle: Klucel (hydroxypropylcellulose) (HPC) 100 % of control

CC(C)(NCc1ccccc1)C(=O)c1ccccc1
inactive: [5] 100 % of control | [6] 95 % of control | [7] 102 % of control | [8] 105 % of control | [9] 93 % of control | [10] 90 % of control | [11] 95 % of control

O=C(COc1ccc(Cl)cc1)NNc1ccccc1
inactive: endpoint: mean survival time, dose: 100.0 mg/kg/injection, schedule: Q04DX002 (ip), vehicle: saline 100 % of control | endpoint: mean survival time, dose: 200.0 mg/kg/injection, schedule: Q04DX002 (ip), vehicle: saline 96 % of control | endpoint: mean survival time, dose: 400.0 mg/kg/injection, schedule: Q04DX002 (ip), vehicle: saline 114 % of control

O=C(O)CCc1ccsc1
inactive: [2] 94 % of control | [3] 100 % of control | [4] 102 % of control

CCCCCCCCC(C(=O)c1ccccc1)=C(C(F)(F)F)C(F)(F)F
inactive: endpoint: mean survival time, dose: 25.0 mg/kg/injection, schedule: Q01DX009 (ip), vehicle: saline 100 % of control | endpoint: mean survival time, dose: 50.0 mg/kg/injection, schedule: Q01DX009 (ip), vehicle: saline 96 % of control | [12] 91 % of control | [13] 86 % of control | [14] 90 % of control | [15] 95 % of control

C/C(Cl)=C/CC1=C(O)c2ccccc2C(=O)C1=O
inactive: endpoint: mean survival time, dose: 25.0 mg/kg/injection, schedule: Q01DX001 (ip), vehicle: water 104 % of control | endpoint: mean survival time, dose: 50.0 mg/kg/injection, schedule: Q01DX001 (ip), vehicle: water 101 % of control | endpoint: mean survival time, dose: 75.0 mg/kg/injection, schedule: Q01DX001 (ip), vehicle: water 97 % of control

CC(C)(C)OC(=O)C(c1ccccc1)c1ccccc1
inactive: [1] 106 % of control | [2] 89 % of control | [3] 106 % of control | [4] 89 % of control

CCC#CC(O)(C(=O)OCC)C1CCCCC1 (stereo unspecified)
inactive: endpoint: mean survival time, dose: 100.0 mg/kg/injection, schedule: Q01DX001 (ip), vehicle: other 104 % of control | endpoint: mean survival time, dose: 200.0 mg/kg/injection, schedule: Q01DX001 (ip), vehicle: other 96 % of control | endpoint: mean survival time, dose: 400.0 mg/kg/injection, schedule: Q01DX001 (ip), vehicle: other 104 % of control

Nc1cc(Br)cc2c1-c1ccc(Br)cc1C2
inactive: [5] 107 % of control | [7] 104 % of control | [10] 96 % of control | endpoint: mean survival time, dose: 400.0 mg/kg/injection, schedule: Q01DX001 (ip), vehicle: carboxymethylcellulose (CMC) 102 % of control

C#CCOC(=O)Nc1cccc(Cl)c1
inactive: [8] 95 % of control | [9] 97 % of control | [16] 97 % of control | [11] 106 % of control | [17] 95 % of control | endpoint: mean survival time, dose: 400.0 mg/kg/injection, schedule: Q04DX003 (ip), vehicle: Klucel (hydroxypropylcellulose) (HPC) 90 % of control

O=C(Nc1cccc(F)c1)Nc1cccc(C(F)(F)F)c1
inactive: [8] 96 % of control | [16] 95 % of control | [17] 105 % of control

O=S(=O)(Nc1c(O)ccc2ccccc12)c1ccccc1
inactive: endpoint: mean survival time, dose: 100.0 mg/kg/injection, schedule: Q01DX009 (ip), vehicle: saline with Tween-80 95 % of control | endpoint: mean survival time, dose: 200.0 mg/kg/injection, schedule: Q01DX009 (ip), vehicle: saline with Tween-80 93 % of control | endpoint: mean survival time, dose: 400.0 mg/kg/injection, schedule: Q01DX009 (ip), vehicle: saline with Tween-80 90 % of control

Cc1ccc2c(C)c3ccc4ccccc4c3c[n+]2c1
inactive: endpoint: mean survival time, dose: 3.13 mg/kg/injection, schedule: Q01DX009 (ip), vehicle: saline with Tween-80 98 % of control | endpoint: mean survival time, dose: 6.2 mg/kg/injection, schedule: Q04DX003 (ip), vehicle: Klucel (hydroxypropylcellulose) (HPC) 111 % of control | endpoint: mean survival time, dose: 6.25 mg/kg/injection, schedule: Q01DX009 (ip), vehicle: saline with Tween-80 107 % of control | endpoint: mean survival time, dose: 12.5 mg/kg/injection, schedule: Q01DX009 (ip), vehicle: saline with Tween-80 107 % of control and 113 % of control | endpoint: mean survival time, dose: 12.5 mg/kg/injection, schedule: Q04DX003 (ip), vehicle: Klucel (hydroxypropylcellulose) (HPC) 104 % of control | endpoint: mean survival time, dose: 25.0 mg/kg/injection, schedule: Q04DX003 (ip), vehicle: Klucel (hydroxypropylcellulose) (HPC) 111 % of control | [6] 117 % of control | [2] 123 % of control | [3] 104 % of control | [4] 104 % of control

CCOC(=O)CNC(=O)C1OC(n2cnc3c(N)ncnc32)C(O)C1O (stereo unspecified)
inactive: endpoint: mean survival time, dose: 6.25 mg/kg/injection, schedule: Q01DX009 (ip), vehicle: saline 105 % of control | endpoint: mean survival time, dose: 12.5 mg/kg/injection, schedule: Q01DX005 (ip), vehicle: saline 102 % of control | endpoint: mean survival time, dose: 12.5 mg/kg/injection, schedule: Q01DX009 (ip), vehicle: saline 110 % of control | endpoint: mean survival time, dose: 25.0 mg/kg/injection, schedule: Q01DX005 (ip), vehicle: saline 114 % of control

COc1ccccc1[P+](CO)(c1ccccc1OC)c1ccccc1OC
inactive: [12] 97 % of control | endpoint: mean survival time, dose: 100.0 mg/kg/injection, schedule: Q04DX003 (ip), vehicle: saline 103 % of control | endpoint: mean survival time, dose: 200.0 mg/kg/injection, schedule: Q01DX009 (ip), vehicle: saline 92 % of control | endpoint: mean survival time, dose: 200.0 mg/kg/injection, schedule: Q04DX003 (ip), vehicle: saline 97 % of control | endpoint: mean survival time, dose: 400.0 mg/kg/injection, schedule: Q01DX009 (ip), vehicle: saline 93 % of control | endpoint: mean survival time, dose: 400.0 mg/kg/injection, schedule: Q04DX003 (ip), vehicle: saline 97 % of control

COC(=O)C1=CNC=C(C(=O)OC)C1c1ccccc1
inactive: [13] 96 % of control | [14] 96 % of control | [15] 98 % of control
